The subject of data set [1] is HIV-1 T-tropic strain LAI. Description: Antiviral assay: HIV-1 LAI infection of MT-2 cells, reverse transcriptase readout (EC50, Table 48). The class given is cell-based. The conditions noted are these: Human immunodeficiency virus 1, MT2; read-out: EC50-LAI. The text has this:
The materials and experimental procedures used to assess the anti-HIV activity of the parent compounds which are generated from the prodrugs in vivo are described below:
• The human T cell line MT-2 and PM1 (AIDS Research and Reference Reagent Program, National Institutes of Health) were maintained and propagated in Medium RPMI-1640 (Invitrogen, Carlsbad, Calif.), containing 10% fetal Bovine serum. (FBS, Sigma, St. Louis, Mo.).
• Laboratory strains of HIV-1—the T-tropic strain LAI was obtained through the AIDS Research and Reference Reagent Program, National Institutes of Health. It was amplified in MT-2 cells and titered using a virus yield assay (2). Detection was achieved through use of a reverse transcriptase assay (3), adapted for use with a Scintillation Proximity detection protocol (1) (Amersham Biosciences, Piscataway, N.J.).
• 1. Compounds stocks were prepared by dissolving in DMSO to 30 mM. For dilution plates, compounds were serially diluted 3-fold into DMSO, using 96-well polypropylene plates, so that the concentrations were 100-fold greater than the final assay concentration. For antiviral and cytotoxicity assays, 2 μl was added per well (1% final DMSO concentration). • 2. Compounds were added from dilution plates to 96 well tissue culture plates, containing 100 μl Medium RPMI-1640, containing 10% fetal bovine serum at a concentration of <20 μM. • 3. For antiviral assays, cells were infected at a multiplicity of infection of 0.005. After 1 h at 37° C., infected cells were diluted to 200,000 cells per ml in Medium RPMI-1640, containing 10% fetal bovine serum. 100 μl of this solution was added per well, giving a final volume of 200 μl. • 4. Plates were incubated at 37° C. in a humidified CO2 incubator and harvested after 5 days. • 5. Viral infections were monitored by measuring reverse transcriptase activity in the supernatants of infected wells as described above. The percent inhibition for each compound was calculated by quantifying the readout level in cells infected in the presence of each compound as a percentage of that observed for cells infected in the absence of compound and subtracting such a determined value from 100. • 6. An EC50 provides a method for comparing the antiviral potency of the compounds of this invention. The effective concentration for fifty percent inhibition (EC50) was calculated with the Microsoft Excel Xlfit curve fitting software. For each compound, curves were generated from percent inhibition calculated at 8 different concentrations by using a four paramenter logistic model (model 205).

The nature of data set [2]: Stability (hydrolysis) of prodrug in fresh serum (human). Conditions: Human Serum.
Data set [3] in a line: Stability (hydrolysis) of prodrug in fresh serum (rat). Conditions: Rat Serum.
Procedure: (§2) The stability of Iab was studied in fresh blood and serum from rat, dog, monkey and human (n=2). The blood was collected in vacutainers containing K2EDTA (Becton Dickinson, Franklin Lakes, N.J.). The serum was collected in vacutainers containing no anticoagulant. Iab was incubated at a starting concentration of approximately 10 μM for 60-90 min at 37° C. Serial samples were taken at the pre-determined times. Aliquots of blood samples (200 μL) were first mixed with 100 μL of water followed by 400 μL of acetonitrile. The serum samples (50 μL) were added into microtainers containing K2EDTA (Becton Dickinson, Franklin Lakes, N.J.) followed by the addition of 100 μL of acetonitrile. The supernatant was analyzed for both Iab and IVa by LC/MS/MS. The stability of Ibb was studied in fresh blood and serum from rat, dog, monkey and human (n=2). The blood was collected in vacutainers containing K2EDTA (Becton Dickinson, Franklin Lakes, N.J.). The serum was collected in vacutainers containing no anticoagulant. Ibb was incubated at a starting concentration of approximately 15 μM for 90 min at 37° C. Serial samples were taken at the pre-determined times. Aliquots of blood samples (200 μL) were first mixed with 100 μL of water followed by 400 μL of acetonitrile. The serum samples (50 μL) were added into microtainers containing K2EDTA (Becton Dickinson, Franklin Lakes, N.J.) followed by the addition of 100 μL of acetonitrile. […] The stability of Icb was studied in fresh blood and serum from rat, dog, monkey and human (n=2). The blood was collected in vacutainers containing K2EDTA (Becton Dickinson, Franklin Lakes, N.J.). The serum was collected in vacutainers containing no anticoagulant. Icb was incubated at a starting concentration of approximately 10 μM for 90 min at 37° C. Serial samples were taken at the pre-determined times. Aliquots of blood samples (200 μL) were first mixed with 100 μL of water followed by 400 μL of acetonitrile. The serum samples (50 μL) were added into microtainers containing K2EDTA (Becton Dickinson, Franklin Lakes, N.J.) followed by the addition of 100 μL of acetonitrile.
Data set [4] can be described thus: Stability of prodrug in Tris-HCl buffer.
Procedure: The stability of Iab was also evaluated, as described above, in Tris-HCl buffer (0.1 M, pH 7.5). The stability of Ibb was also evaluated, as described above, in Tris-HCl buffer (0.1 M, pH 7.5). The stability of Icb was also evaluated, as described above, in Tris-HCl buffer (0.1 M, pH 7.5).
A short description of data set [5]: Stability of prodrug in fresh EDTA blood (dog).
Procedure: as §2
Data set [6] can be described thus: Stability of prodrug in fresh EDTA blood (human). The conditions noted are these: Human EDTA blood.
Procedure: as §2
Data set [7] can be described thus: Stability (hydrolysis) of prodrug in fresh serum (monkey). The conditions noted are these: Monkey Serum.
Procedure: as §2
The nature of data set [8]: in vitro. The conditions noted are these: rat, serum.
Procedure: as §2
For the next data set, the system named is dog hepatocytes. Description: Hydrolysis of prodrug in hepatocytes (dog). Format: in vitro ADME. As for the experimental part:
(§1) The in vitro intrinsic clearance of Ibb in hepatocytes (Clint) was calculated as follows: Clint(μL/min/million cells)=Rate/CE where Rate is the rate of metabolism in hepatocytes (pmol/min/million cells), and CE is the concentration of Ibb in the incubation. The in vitro intrinsic clearance of Icb in hepatocytes (Clint) was calculated as follows: Clint(μL/min/million cells)=Rate/CE where Rate is the rate of metabolism in hepatocytes (pmol/min/million cells), and CE is the concentration of Icb in the incubation.

A short description of data set [9]: in vitro. The conditions noted are these: monkey, serum.
Procedure: as §2
In the next data set the test system is human hepatocytes. Description: Hydrolysis of prodrug in hepatocytes (human). The class given is in vitro ADME. On the procedure: as §1
The test system of a further data set is monkey hepatocytes. Description: Hydrolysis of prodrug in hepatocytes (monkey). Format: in vitro ADME. As for the experimental part: as §1

Molecules are shown by their SMILES. Structures can show the parent of a compound that is named as a salt.

With `COc1cnc(-n2cnc(C)n2)c2[nH]cc(C(=O)C(=O)N3CCN(C(=O)c4ccccc4)CC3)c12` [IVc], the half-maximal effective concentration (EC50) in data set [1] was less than 1000 nM.
`O=C(C(=O)N1CCN(C(=O)c2ccccc2)CC1)c1c[nH]c2c(-n3ccnn3)ncc(F)c12` [IVb]: the EC50 in data set [1] was less than 1000 nM.
On to `COc1ncc(OC)c2c(C(=O)C(=O)N3CCN(C(=O)c4ccccc4)CC3)c[nH]c12` [IVa, N-(benzoyl)-N′-[(4,7-dimethoxy-6-azaindol-3-yl)-oxoacetyl]piperazine], for which the “Iab / IVa Formed” value in [2] (37°C, 0 min) amounted to 0.10 µM; in [2] (15 min), 0.10 µM; in [2] (30 min) it was 0.15 µM; in [2] (45 min), 0.20 µM; in data set [2] (60 min) it was 0.24 µM; in [2] (90 min) it was 0.32 µM. Besides, the “Iab / IVa Formed” value is 0.25 µM in data set [3] (37°C, 0 min); 1.1 µM in data set [3] (15 min); 1.8 µM in data set [3] (30 min); 2.8 µM in data set [3] (45 min); 3.7 µM in data set [3] (60 min); 5.4 µM in [3] (90 min). Further, the “Iab / IVa Formed” value came out at 0.011 µM in data set [4] (Tris-HCl buffer (0.1 M, pH 7.5), 37°C, 0 min); 0.008 µM in [4] (Tris-HCl buffer, 20 min); 0.008 µM in data set [4] (Tris-HCl buffer, 40 min); 0.009 µM in data set [4] (Tris-HCl buffer, 60 min); 0.061 µM in data set [6] (0 min); 0.067 µM in [6] (15 min). The “Iab / IVa Formed” value in data set [6] (30 min) worked out at 0.057 µM; in [6] (45 min) it was 0.073 µM; in data set [6] (60 min) it was 0.084 µM; in data set [7] (37°C, 0 min), 0.20 µM; in data set [7] (15 min), 0.48 µM; in data set [7] (30 min) it was 0.75 µM. The “Iab / IVa Formed” value in data set [7] (45 min) was 1.2 µM; in data set [7] (60 min) it was 1.5 µM; in [7] (90 min), 2.0 µM. For the same compound, the “% IVa Formed (of starting concentration of Iab)” value (shortened to “% IVa Formed”) in [4] (Tris-HCl buffer, 0 min) came to 0.11%; in data set [4] (Tris-HCl buffer, 20 min), 0.081%; in [4] (Tris-HCl buffer, 40 min), 0.076%; in data set [4] (Tris-HCl buffer, 60 min), 0.088%; in data set [5] (Dog A EDTA blood (Table 15), 0 min), 0.30%; in [5] (Dog A EDTA blood (Table 15), 20 min) it was 2.4%. Further, the “% IVa Formed” value was determined as 4.1% in data set [5] (Dog A EDTA blood (Table 15), 40 min); 6.2% in [5] (Dog A EDTA blood (Table 15), 60 min); 0.63% in data set [5] (Dog A EDTA blood (repeat), 0 min); 2.3% in [5] (Dog A EDTA blood (repeat), 15 min); 3.4% in data set [5] (Dog A EDTA blood (repeat), 30 min); 4.8% in data set [5] (Dog A EDTA blood (repeat), 45 min). For the same compound, the “% IVa Formed” value is recorded as 6.1% in data set [5] (Dog A EDTA blood (repeat), 60 min); 0.68% in data set [5] (Dog B EDTA blood, 0 min); 2.0% in data set [5] (Dog B EDTA blood, 15 min); 3.5% in data set [5] (Dog B EDTA blood, 30 min); 4.5% in data set [5] (Dog B EDTA blood, 45 min); 5.8% in [5] (Dog B EDTA blood, 60 min). The “% IVa Formed” value is reported as 0.55% in data set [6] (0 min); 0.59% in [6] (15 min); 0.50% in data set [6] (30 min); 0.65% in data set [6] (45 min); 0.75% in [6] (60 min). The EC50 in data set [1] is less than 1000 nM.
For `COc1cnc(-n2cnc(C)n2)c2c1c(C(=O)C(=O)N1CCN(C(=O)c3ccccc3)CC1)cn2COP(=O)(O)O` [Icb, [3-[(4-benzoylpiperazin-1-yl)(oxo)acetyl]-4-methoxy-7-(3-methyl-1H-1,2,4-triazol-1-yl)-1H-pyrrolo[2,3-c]pyridin-1-yl]methyl dihydrogen phosphate, 2-amino-2-(hydroxymethyl)propane-1,3-diol salt (1:1)], the half-life at 10 μM in the data set “in vitro [8]” worked out at 42 min; in the data set “in vitro [9]”, 30 min. Besides, the “hydrolysis in the presence of hepatocytes” value with dog hepatocytes is listed as “hydrolyzed”; with human hepatocytes it was “hydrolyzed”; in the data set with monkey hepatocytes, “No turnover was observed”.

One may read the EC50 as the concentration at which the effect is half-maximal. As usually defined, the half-life is the time needed for the level to fall by half in the phase considered.

For the origin of these results see patent publication US20150315218A1, “SALTS OF PRODRUGS OF PIPERAZINE AND SUBSTITUTED PIPERIDINE ANTIVIRAL AGENTS” (Bristol-Myers Squibb Company, priority 2004, published 2015).
